≈ marks a conversion by molar mass, not a printed value. Where two headings read alike, the source gives them in different places.
Experiments:
[1] = test system: P. aeruginosa (ΔmexAB-oprM); experiment: Broth microdilution MIC in iron-depleted CAMHB (IDM); assay type: cell-based; conditions: Pseudomonas aeruginosa; iron-depleted CAMHB (IDM); […]; read-out: Minimum inhibitory concentration, P. aeruginosa ΔmexAB-oprM
[2] = test system: P. aeruginosa ATCC 35151; experiment: microbe, parasite or virus in culture; assay type: cell-based; conditions: Pseudomonas aeruginosa, ATCC35151, read-out: Minimum inhibitory concentration, P. aeruginosa ATCC 35151
[3] = biological target: T1, A. baumannii PBP1a (Acinetobacter baumannii, UniProt A0ABX6CK30); experiment: Bocillin-FL competition binding via gel filtration, A. baumannii PBP1a
T1 sequence (A0ABX6CK30 1-851): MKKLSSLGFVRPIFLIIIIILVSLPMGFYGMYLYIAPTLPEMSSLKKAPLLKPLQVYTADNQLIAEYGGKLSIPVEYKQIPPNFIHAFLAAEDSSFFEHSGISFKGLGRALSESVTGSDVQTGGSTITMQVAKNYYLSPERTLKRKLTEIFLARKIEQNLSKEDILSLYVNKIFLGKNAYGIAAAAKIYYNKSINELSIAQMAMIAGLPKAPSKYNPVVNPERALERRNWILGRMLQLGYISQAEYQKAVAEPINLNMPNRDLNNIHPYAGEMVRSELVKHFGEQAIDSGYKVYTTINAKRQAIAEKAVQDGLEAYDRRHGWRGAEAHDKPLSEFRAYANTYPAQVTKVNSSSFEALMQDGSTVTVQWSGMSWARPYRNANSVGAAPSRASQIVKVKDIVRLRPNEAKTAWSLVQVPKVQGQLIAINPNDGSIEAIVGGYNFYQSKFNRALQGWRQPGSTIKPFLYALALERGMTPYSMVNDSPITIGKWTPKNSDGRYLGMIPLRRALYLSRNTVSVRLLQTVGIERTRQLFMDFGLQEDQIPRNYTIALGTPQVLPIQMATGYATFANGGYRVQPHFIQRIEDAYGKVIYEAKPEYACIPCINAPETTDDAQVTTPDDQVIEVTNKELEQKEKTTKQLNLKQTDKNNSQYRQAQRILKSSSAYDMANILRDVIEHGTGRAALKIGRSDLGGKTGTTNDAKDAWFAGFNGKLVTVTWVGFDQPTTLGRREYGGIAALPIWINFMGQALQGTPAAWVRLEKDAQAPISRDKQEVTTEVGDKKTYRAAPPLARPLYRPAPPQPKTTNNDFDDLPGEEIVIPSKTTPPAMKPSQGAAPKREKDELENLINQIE
Procedure, shortened: (§1)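 Enzyme pre-incubated with increasing inhibitor concentrations, then Bocillin-FL added for 15 min further incubation. Bocillin-FL-bound PBP separated by gel filtration and fluorescence read. EC50 from fitting fraction PBP bound vs inhibitor concentration to a Hill-type equation (ymin, ymax, n).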

[4] = test system: P. aeruginosa ATCC 27853; experiment: microbe, parasite or virus in culture; assay type: cell-based; conditions: Pseudomonas aeruginosa, ATCC27853, read-out: Minimum inhibitory concentration, P. aeruginosa ATCC 27853
[5] = test system: A. baumannii CDC-0036; experiment: microbe, parasite or virus in culture; assay type: cell-based; conditions: Acinetobacter baumannii, CDC0036, read-out: MIC, A. baumannii CDC-0036
[6] = test system: B. thailandensis ATCC 700388; experiment: microbe, parasite or virus in culture; assay type: cell-based; conditions: Burkholderia thailandensis, ATCC700388, read-out: Minimum inhibitory concentration (MIC), B. thailandensis ATCC 700388
[7] = test system: A. baumannii CDC-0045; experiment: microbe, parasite or virus in culture; assay type: cell-based; conditions: Acinetobacter baumannii, CDC0045, read-out: MIC, A. baumannii CDC-0045
[8] = biological target: A. baumannii PBP2 (Acinetobacter baumannii, UniProt D0C8Z9); experiment: Bocillin-FL competition binding via gel filtration, A. baumannii PBP2
Procedure, shortened: as §1

[9] = test system: A. baumannii CDC-0033; experiment: microbe, parasite or virus in culture; assay type: cell-based; conditions: Acinetobacter baumannii, CDC0033, read-out: MIC, A. baumannii CDC-0033
[10] = test system: B. humptydooensis ATCC BAA-2767; experiment: microbe, parasite or virus in culture; assay type: cell-based; conditions: Burkholderia humptydooensis, ATCCBAA2767, read-out: Minimum inhibitory concentration (MIC), B. humptydooensis ATCC BAA-2767
[11] = test system: P. aeruginosa CDC-0110; experiment: microbe, parasite or virus in culture; assay type: cell-based; conditions: Pseudomonas aeruginosa, CDC0110, read-out: Minimum inhibitory concentration, P. aeruginosa CDC-0110
[12] = competition binding assay using Bocillin-FL via gel filtration, read-out: A. baumannii PBP1a Potency

A. baumannii PBP2, sequence (D0C8Z9 whole entry): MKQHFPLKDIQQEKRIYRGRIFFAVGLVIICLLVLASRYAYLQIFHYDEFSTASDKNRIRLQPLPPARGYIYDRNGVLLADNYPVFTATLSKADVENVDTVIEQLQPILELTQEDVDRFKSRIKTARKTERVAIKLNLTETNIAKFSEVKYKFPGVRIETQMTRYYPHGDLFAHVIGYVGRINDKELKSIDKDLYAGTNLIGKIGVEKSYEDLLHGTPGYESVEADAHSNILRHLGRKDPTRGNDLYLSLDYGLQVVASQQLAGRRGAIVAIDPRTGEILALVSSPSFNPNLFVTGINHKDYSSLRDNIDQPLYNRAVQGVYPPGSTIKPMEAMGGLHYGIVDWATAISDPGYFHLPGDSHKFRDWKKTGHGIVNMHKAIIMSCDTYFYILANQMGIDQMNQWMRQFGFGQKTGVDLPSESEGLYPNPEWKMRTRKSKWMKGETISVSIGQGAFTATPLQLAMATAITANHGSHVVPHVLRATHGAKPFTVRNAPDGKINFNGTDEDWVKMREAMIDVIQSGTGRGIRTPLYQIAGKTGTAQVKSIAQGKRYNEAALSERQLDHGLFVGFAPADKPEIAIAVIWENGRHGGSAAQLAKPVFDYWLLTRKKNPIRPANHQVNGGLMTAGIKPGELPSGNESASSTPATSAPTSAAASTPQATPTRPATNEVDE

| SMILES | MIC [1] | MIC [2] | EC50 [3, 12] | MIC [4] | MIC [5] | MIC [6] | MIC [7] | EC50 [8] | MIC [9] | MIC [10] | MIC [11] | EC50 [3] |
| --- | --- | --- | --- | --- | --- | --- | --- | --- | --- | --- | --- | --- |
| O=C(O)c1c(F)ccc2c1OB(O)[C@@H](NC(=O)[C@H](NC(=O)N1CCN(C3CCN(C(=O)Nc4cccc(O)c4Cl)CC3)C1=O)c1cc(F)c(O)c(O)c1Cl)C2 [Example 447, (R)-3-((R)-2-(3-(1-((2-chloro-3-hydroxyphenyl)carbamoyl)piperidin-4-yl)-2-oxoimidazolidine-1-carboxamido)-2-(2-chloro-5-fluoro-3,4-dihydroxyphenyl)acetamido)-7-fluoro-2-hydroxy-3,4-dihydro-2H-benzo[e][1,2]oxaborinine-8-carboxylic acid] | < 1 µg/mL | < 1 µg/mL | < 10 µM | < 1 µg/mL | < 1 µg/mL | < 1 µg/mL | < 1 µg/mL | < 10 µM | < 1 µg/mL | < 1 µg/mL | < 1 µg/mL |  |
| O=C(O)c1c(F)ccc2c1OB(O)[C@@H](NC(=O)[C@H](NC(=O)N1CCN(C3CCN(C(=O)Nc4cc(O)cc(O)c4)CC3)C1=O)c1cc(F)c(O)c(O)c1Cl)C2 [Example 456, (R)-3-((R)-2-(2-chloro-5-fluoro-3,4-dihydroxyphenyl)-2-(3-(1-((3,5-dihydroxyphenyl)carbamoyl)piperidin-4-yl)-2-oxoimidazolidine-1-carboxamido)acetamido)-7-fluoro-2-hydroxy-3,4-dihydro-2H-benzo[e][1,2]oxaborinine-8-carboxylic acid] | < 1 µg/mL | < 1 µg/mL | < 10 µM | < 1 µg/mL | < 1 µg/mL | < 1 µg/mL | < 1 µg/mL | < 10 µM | < 1 µg/mL | < 1 µg/mL | < 1 µg/mL |  |
| O=C(O)c1c(F)ccc2c1OB(O)[C@@H](NC(=O)[C@H](NC(=O)N1CCN(C3CCN(C(=O)c4cccnc4)CC3)C1=O)c1cc(F)c(O)c(O)c1Cl)C2 [Example 460, (R)-3-((R)-2-(2-chloro-5-fluoro-3,4-dihydroxyphenyl)-2-(3-(1-nicotinoylpiperidin-4-yl)-2-oxoimidazolidine-1-carboxamido)acetamido)-7-fluoro-2-hydroxy-3,4-dihydro-2H-benzo[e][1,2]oxaborinine-8-carboxylic acid] | < 1 µg/mL | < 1 µg/mL |  | < 1 µg/mL | < 1 µg/mL | < 1 µg/mL | < 1 µg/mL | 10 to 50 µM | < 1 µg/mL | < 1 µg/mL | < 1 µg/mL | 10 to 50 µM |
| O=C(O)c1c(F)ccc2c1OB(O)[C@@H](NC(=O)[C@H](NC(=O)N1CCN(C3CCN(C(=O)c4ccncc4)CC3)C1=O)c1cc(F)c(O)c(O)c1Cl)C2 [Example 461, (R)-3-((R)-2-(2-chloro-5-fluoro-3,4-dihydroxyphenyl)-2-(3-(1-isonicotinoylpiperidin-4-yl)-2-oxoimidazolidine-1-carboxamido)acetamido)-7-fluoro-2-hydroxy-3,4-dihydro-2H-benzo[e][1,2]oxaborinine-8-carboxylic acid] | < 1 µg/mL | < 1 µg/mL | 10 to 50 µM | < 1 µg/mL | < 1 µg/mL | < 1 µg/mL | < 1 µg/mL | 10 to 50 µM | < 1 µg/mL | < 1 µg/mL | < 1 µg/mL |  |
| O=C(O)c1c(F)ccc2c1OB(O)[C@@H](NC(=O)C(NC(=O)N1CCN(C3CCN(C(=O)Nc4cc(O)ccc4F)CC3)C(=O)C1=O)c1cc(F)c(O)c(O)c1Cl)C2 (stereo partly drawn) [Example 479, (3R)-3-(2-(2-chloro-5-fluoro-3,4-dihydroxyphenyl)-2-(4-(1-((2-fluoro-5-hydroxyphenyl)carbamoyl)piperidin-4-yl)-2,3-dioxopiperazine-1-carboxamido)acetamido)-7-fluoro-2-hydroxy-3,4-dihydro-2H-benzo[e][1,2]oxaborinine-8-carboxylic acid] | < 1 µg/mL | < 1 µg/mL | 10 to 50 µM | 2 to 4 µg/mL (≈ 2.44 to 4.88 µM) | < 1 µg/mL | < 1 µg/mL | < 1 µg/mL | 10 to 50 µM | 2 to 4 µg/mL (≈ 2.44 to 4.88 µM) | 2 to 4 µg/mL (≈ 2.44 to 4.88 µM) | < 1 µg/mL |  |
| O=C(O)c1c(F)ccc2c1OB(O)[C@@H](NC(=O)C(NC(=O)N1CCN(C3CCN(C(=O)Nc4ccc(F)c(O)c4)CC3)C(=O)C1=O)c1cc(F)c(O)c(O)c1Cl)C2 (stereo partly drawn) [Example 480, (3R)-3-(2-(2-chloro-5-fluoro-3,4-dihydroxyphenyl)-2-(4-(1-((4-fluoro-3-hydroxyphenyl)carbamoyl)piperidin-4-yl)-2,3-dioxopiperazine-1-carboxamido)acetamido)-7-fluoro-2-hydroxy-3,4-dihydro-2H-benzo[e][1,2]oxaborinine-8-carboxylic acid] | < 1 µg/mL | < 1 µg/mL | < 10 µM | 2 to 4 µg/mL (≈ 2.44 to 4.88 µM) | 2 to 4 µg/mL (≈ 2.44 to 4.88 µM) | 2 to 4 µg/mL (≈ 2.44 to 4.88 µM) | < 1 µg/mL | 10 to 50 µM | 2 to 4 µg/mL (≈ 2.44 to 4.88 µM) | 8 to 16 µg/mL (≈ 9.77 to 19.5 µM) | 2 to 4 µg/mL (≈ 2.44 to 4.88 µM) |  |
| O=C(O)c1c(F)ccc2c1OB(O)[C@@H](NC(=O)C(NC(=O)N1CCN(C3CCN(C(=O)Nc4cc(O)cc(F)c4)CC3)C(=O)C1=O)c1cc(F)c(O)c(O)c1Cl)C2 (stereo partly drawn) [Example 481, (3R)-3-(2-(2-chloro-5-fluoro-3,4-dihydroxyphenyl)-2-(4-(1-((3-fluoro-5-hydroxyphenyl)carbamoyl)piperidin-4-yl)-2,3-dioxopiperazine-1-carboxamido)acetamido)-7-fluoro-2-hydroxy-3,4-dihydro-2H-benzo[e][1,2]oxaborinine-8-carboxylic acid] | < 1 µg/mL | < 1 µg/mL | < 10 µM | 2 to 4 µg/mL (≈ 2.44 to 4.88 µM) | < 1 µg/mL | 2 to 4 µg/mL (≈ 2.44 to 4.88 µM) | < 1 µg/mL | < 10 µM | 2 to 4 µg/mL (≈ 2.44 to 4.88 µM) | 32 to 64 µg/mL (≈ 39.1 to 78.2 µM) | < 1 µg/mL |  |
| O=C(O)c1c(F)ccc2c1OB(O)[C@@H](NC(=O)[C@H](NC(=O)N1CCN(C3CCN(C(=O)Nc4cccc(O)c4Cl)CC3)C(=O)C1=O)c1cc(F)c(O)c(O)c1Cl)C2 [Example 482, (R)-3-((R)-2-(4-(1-((2-chloro-3-hydroxyphenyl)carbamoyl)piperidin-4-yl)-2,3-dioxopiperazine-1-carboxamido)-2-(2-chloro-5-fluoro-3,4-dihydroxyphenyl)acetamido)-7-fluoro-2-hydroxy-3,4-dihydro-2H-benzo[e][1,2]oxaborinine-8-carboxylic acid] | < 1 µg/mL | < 1 µg/mL | 10 to 50 µM | 2 to 4 µg/mL (≈ 2.39 to 4.79 µM) | < 1 µg/mL | < 1 µg/mL | < 1 µg/mL | 10 to 50 µM | 2 to 4 µg/mL (≈ 2.39 to 4.79 µM) | 2 to 4 µg/mL (≈ 2.39 to 4.79 µM) | 2 to 4 µg/mL (≈ 2.39 to 4.79 µM) |  |
| O=C(O)c1c(F)ccc2c1OB(O)[C@@H](NC(=O)C(NC(=O)N1CCN(C3CCN(C(=O)Nc4cc(O)ccc4Cl)CC3)C(=O)C1=O)c1cc(F)c(O)c(O)c1Cl)C2 (stereo partly drawn) [Example 483, (3R)-3-(2-(2-chloro-5-fluoro-3,4-dihydroxyphenyl)-2-(4-(1-((2-chloro-5-hydroxyphenyl)carbamoyl)piperidin-4-yl)-2,3-dioxopiperazine-1-carboxamido)acetamido)-7-fluoro-2-hydroxy-3,4-dihydro-2H-benzo[e][1,2]oxaborinine-8-carboxylic acid] | < 1 µg/mL | < 1 µg/mL | < 10 µM | 2 to 4 µg/mL (≈ 2.39 to 4.79 µM) | 2 to 4 µg/mL (≈ 2.39 to 4.79 µM) | 32 to 64 µg/mL (≈ 38.3 to 76.6 µM) | < 1 µg/mL | 10 to 50 µM | 8 to 16 µg/mL (≈ 9.58 to 19.2 µM) | > 128 µg/mL | 2 to 4 µg/mL (≈ 2.39 to 4.79 µM) |  |
